How the values were obtained:
CYP3A = experiment: Testosterone 6β-hydroxylase in rat liver microsomes; conditions: probe testosterone
Method: (§1) The conversion of androstenedione to estrone by aromatase (CYP19) in human placental microsomes, the conversion of 17-hydroxy-20-dihydroprogesterone to testosterone by 17,20-lyase (CYP17) in rat testicular S10 fractions, and the 2α-, 7α-, 6β-, and 16β-hydroxylation of testosterone (CYP2C11, CYP2A1, CYP3A, CYP2B1/2) in rat liver microsomes were carried out as described ([Vanden Bossche et al, 1990]).

in vivo = conditions: mouse, po
Method: Cells (1.5×10^6) were injected intraperitoneally in syngeneic A/J mice. […] Each group consisted of 10 animals for experiments with R116010 and of six animals for experiments with RA. All treatments were performed by oral gavage. […] The control groups were given the vehicle 20% 4-OH-β-cyclodextrine in sterile saline. Mice were daily examined for adverse drug effects. At the end of the experiments, subcutaneous tumours were excised 24 h after the last treatment and weighed to validate the antitumoural effects of the treatment.
Data are represented as box plots showing median group value, 25/75th percentile, 10/90th percentile and outliers. Groups were statistically compared to the vehicle-treated groups using the Mann–Whitney U-test. Significance was defined at the level of P<0.05.

aromatase (CYP19) = target: T1, aromatase (CYP19) (Homo sapiens, UniProt P11511); experiment: Aromatase, conversion of androstenedione to estrone in human placental microsomes; assay type: biochemical
T1 construct: aromatase (CYP19) in human placental microsomes; from tissue; host or cells: human placenta, microsomes
T1 sequence (P11511 1-503): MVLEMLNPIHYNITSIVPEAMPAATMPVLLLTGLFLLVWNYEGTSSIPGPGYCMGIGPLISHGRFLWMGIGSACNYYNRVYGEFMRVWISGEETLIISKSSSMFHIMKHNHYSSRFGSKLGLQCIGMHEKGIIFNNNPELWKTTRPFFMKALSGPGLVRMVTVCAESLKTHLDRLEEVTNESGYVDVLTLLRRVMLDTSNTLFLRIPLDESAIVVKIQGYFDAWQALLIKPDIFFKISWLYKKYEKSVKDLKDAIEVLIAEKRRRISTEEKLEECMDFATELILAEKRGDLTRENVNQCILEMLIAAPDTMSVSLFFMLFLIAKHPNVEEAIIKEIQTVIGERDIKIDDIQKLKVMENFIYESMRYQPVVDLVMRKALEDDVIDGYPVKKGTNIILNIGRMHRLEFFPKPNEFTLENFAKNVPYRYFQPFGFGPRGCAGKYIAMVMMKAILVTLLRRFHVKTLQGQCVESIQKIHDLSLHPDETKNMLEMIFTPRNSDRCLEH
Method: as §1

CYP26A1 = target: T2, CYP26A1 (Homo sapiens, UniProt O43174); experiment: RA 4-hydroxylase in T47D human breast cancer microsomes; assay type: biochemical
T2 construct: microsomes of T47D human breast cancer cells that were pretreated for 16 h with 1 μM RA to induce RA metabolism; endogenous in cells; host or cells: T47D human breast cancer cells, pretreated with 1 μM RA for 16 h; microsomal fraction
T2 sequence (O43174 1-497): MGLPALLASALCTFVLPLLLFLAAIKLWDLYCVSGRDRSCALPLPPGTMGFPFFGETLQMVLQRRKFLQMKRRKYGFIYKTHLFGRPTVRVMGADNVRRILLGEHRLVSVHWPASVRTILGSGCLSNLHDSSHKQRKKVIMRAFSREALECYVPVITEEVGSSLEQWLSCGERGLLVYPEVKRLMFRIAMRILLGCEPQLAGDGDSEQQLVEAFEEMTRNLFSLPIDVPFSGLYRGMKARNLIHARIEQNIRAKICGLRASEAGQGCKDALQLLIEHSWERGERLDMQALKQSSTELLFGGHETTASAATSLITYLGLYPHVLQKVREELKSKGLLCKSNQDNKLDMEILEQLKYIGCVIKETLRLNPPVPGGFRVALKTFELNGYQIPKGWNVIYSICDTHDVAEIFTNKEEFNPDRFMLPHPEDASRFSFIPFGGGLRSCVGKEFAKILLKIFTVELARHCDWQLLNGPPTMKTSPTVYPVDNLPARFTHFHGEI
Method: Metabolism of RA by CYP26A1 was measured in microsomes of T47D human breast cancer cells that were pretreated for 16 h with 1 μM RA to induce RA metabolism. Microsomes were prepared exactly as described by [Han and Choi (1996)], and RA metabolism was measured as described by [Van Wauwe et al (1994)]. The conversion of androstenedione to estrone by aromatase (CYP19) in human placental microsomes, the conversion of 17-hydroxy-20-dihydroprogesterone to testosterone by 17,20-lyase (CYP17) in rat testicular S10 fractions, and the 2α-, 7α-, 6β-, and 16β-hydroxylation of testosterone (CYP2C11, CYP2A1, CYP3A, CYP2B1/2) in rat liver microsomes were carried out as described ([Vanden Bossche et al, 1990]).

[1] = test system: RA metabolism in intact T47D cells; experiment: Microcolumn assay for RA metabolism in intact T47D cells; assay type: cell-based, human
Method: RA metabolism was quantitatively determined using the microcolumn assay as described previously ([Krekels et al, 1997]). […] Cells were then washed twice with culture medium, harvested and resuspended at 4×10^6 cells ml^−1. An aliquot of this cell suspension (450 μl) was incubated for 90 min in the presence of 0.1 μM [11, 12-^3H(N)]RA, after which 2 ml acetonitrile was added. After centrifugation for 10 min at 780 g, the resulting deproteinized supernatant was acidified with 2.5 ml of 40 mM acetic acid and applied to a 3 ml C18 Bond Elut LRC column (Varian, Harbor City, CA, USA; pretreated with 4 ml distilled water) under a vacuum of 127 mmHg using VAC ELUT SPS-24 and the effluent was collected. The column was eluted with 1 ml 40% acetonitrile and the effluent was collected in the same vial. Radioactivity in the collected effluent, containing the polar metabolites, was determined in a Packard Tri-carb 4530 liquid scintillation analyzer. Optiphase ‘Hi Safe II’ (Wallac, Milton Keynes, UK) was used as a scintillator. Data are presented as mean±s.d. of three or four independent experiments. The IC50-values were calculated by non-linear regression analysis using SigmaPlot 4.01 software.

Question: With C[C@@H]([C@H](c1ccc(Nc2nc3ccccc3s2)cc1)n1ccnc1)N(C)C [R116010, [S-(R*,R*)]-N-[4-[2-(dimethylamino)-1-(1H-imidazole-1-yl)propyl]-phenyl]-2-benzothiazolamine] as the compound, how does the IC50 (CYP3A) read?
Answer: > 10000 nM

Question: And the inhibition at 10 μM (CYP3A)?
Answer: 41%

Question: What about the MTD (in vivo) of the same compound?
Answer: 5 mg/kg

Question: And the inhibition at 10 μM (aromatase (CYP19); 10 μM R116010, human placental microsomes, read-out: percentage of inhibition, Aromatase (CYP19))?
Answer: 12%

Question: What about the IC50 (aromatase (CYP19); Human placental microsomes) of the same compound?
Answer: > 10000 nM

Question: And the IC50 (CYP26A1)?
Answer: 4 nM

Question: What about the IC50 ([1]; Homo sapiens, intact T47D cells pretreated 16 h with 1 μM RA, 0.1 μM [3H]RA, 90 min, read-out: IC50 inhibition of formation of polar [3H]RA metabolites (RA metabolism)) of the same compound?
Answer: 8.7 nM

Question: And the “fold more potent than liarozole-fumarate as inhibitor of RA metabolism” value ([1]; intact T47D cells)?
Answer: over 100 fold
